Data on 2 compounds can be found in publication PMC10463274 (2023).

For assay [1], the system named is vancomycin aptamer (DNA, aptamer) CGAGGGTACCGCAATAGTACTTATTGTTCGCCTATTGTGGGTCGG
Briefly: FFT-EIS electrochemical aptamer-based sensor (ket titration). The conditions noted are these: whole bovine blood, 37 °C; apparent; error is 95% confidence interval; Hill–Langmuir fit.

The subject of assay [2] is phenylalanine aptamer (DNA, aptamer) CGACCGCGTTTCCCAAGAAAGCAAGTATTGGTTGGTCG
Briefly: FFT-EIS electrochemical aptamer-based sensor. Conditions: in vitro calibration; details only in supporting information.

Molecules are shown by their SMILES.

In the case of `CN[C@H](CC(C)C)C(=O)N[C@H]1C(=O)N[C@@H](CC(N)=O)C(=O)N[C@H]2C(=O)N[C@H]3C(=O)N[C@H](C(=O)N[C@H](C(=O)O)c4cc(O)cc(O)c4-c4cc3ccc4O)[C@H](O)c3ccc(c(Cl)c3)Oc3cc2cc(c3O[C@@H]2O[C@H](CO)[C@@H](O)[C@H](O)[C@H]2O[C@H]2C[C@](C)(N)[C@H](O)[C@H](C)O2)Oc2ccc(cc2Cl)[C@H]1O`, the KD in assay [1] stood at 144 ± 31 µM. Regarding `N[C@@H](Cc1ccccc1)C(=O)O`, the binding entry in assay [2] is listed as “yes”.
